US20060135415A1, “Immunomodulation and effect on cell processes relating to serotonin family receptors and the blood-brain barrier” (priority 2002, published 2006)

Experiments:
[1] = test system: murine lymphocytes (BALB/c responders, C57/B6 stimulators); assay: Murine mixed lymphocyte reaction (BALB/c vs. C57BL6); format: cell-based, mouse; details: FIG. 10
Procedure: MLRs were performed essentially as described in Current Protocols in Immunology (1999, Section 3.12.6-3.12.7). That is, the primary spleen cells obtained from C57/B6J mice were used as stimulators. They were purified as described in Current Protocols in Immunology (1999, Section 3.1.5), and were irradiated (35 Gy) at the Hahnemann Hospital (Philadelphia, Pa.) blood bank facility. Primary spleen cells obtained from BALB/c/BYJ were depleted from the adherent cells using a nylon wool column, and were used as responders.
The various inhibitors were pre-plated onto 96 well, U-bottom plates and all experimental conditions were assayed at least in triplicate. 100,000 C57/B6 cells in RPMI medium, supplemented with 10% FBS, were plated into each well. 200,000 of BALB/c/BYJ cells were plated over the stimulator cells, to a final volume of 200 μl/well. Background controls received either no BALB/c cells, or no C57/B6 cells. One micro Ci of tritiated thymidine was added to each well after 4 days, and the plates were harvested 12 hours later.

[2] = test system: ConA stimulated human lymphocytes; assay: Viable cell counts (trypan blue) during ConA stimulation; format: cell-based; details: 10 μg/ml ConA, manual counts over time (FIG. 11)
Procedure: FIG. 11 is a diagram depicting the effect of a 5HT type 1 receptor antagonist and a 5HT type 2 receptor antagonist on the cell numbers occurring during the mitogenic stimulation of human lymphocyte activation. The cells were stimulated with 10 μg/ml ConA. The cells were repurified on a Ficoll gradient prior to addition of the inhibitor. Trypan blue exclusion was used to count the viable cells.
To further assess the effects of propanolol (a general 5-HTR 1 antagonist) and risperidone (a general 5-HTR 2 antagonist) on the mitogenically stimulated lymphocyte culture, the number of viable cells were manually counted as the assay progressed. If the cells were not stimulated, there was no detectable change in the number of viable cells. When the cells were stimulated with ConA, a small lag period was observed and the beginning of the growth phase compared to the stimulation response curve observed in the absence of the inhibitor. […] Apparently, there is no decrease or increase compared with the starting cell numbers. It is unclear whether or not this is due too anergy, an inability to initiate the activation pathway, or both. […] Thus, based on the data presented here, the classes of antagonists that inhibit the type 2 serotonin receptors appear to be rate limiting for the lymphocyte activation processes.

[3] = test system: allogeneic CTL response against P815 cells; assay: Murine allograft model, CTL killing of P815 target cells by splenocytes; format: in vivo, C57BL/6J mice; details: 5HT antagonists 200 μg/injection tail vein days 6 and 8; Cyclosporin A 100 μg ip daily from day −2; sacrifice day 14 (FIGS. 13, 14)
Procedure: The in vivo validation screen used was an art-recognized murine allogeneic rejection model as described in Zhan et al., 2000. For this assay, a complete MHC miss-match system was employed wherein 5×10^6 P815 cells ([H-2^d] DBA/2 mastocytoma) were injected into the peritoneal cavity of C57BL/6J (H-2^b) mice on day 0 of the experiment. These mice typically generate a strong cytotoxic T lymphocyte (CTL) reaction in response to P815 cells. Following the initial P815 cell inoculation, the mice were allowed to develop a CTL response (this usually takes about 10-14 days). […] Mice were then sacrificed on day 14 of the experiment as indicated in the figures; and the allogeneic CTL response was assayed as described previously (Tretiakova et al., 2000, Nature Biotechnology 18:984-988). The primary spleen cells from the treated and untreated animals were used in the direct CTL readout. Freshly obtained primary spleen cells were incubated with the [^3H] labeled target cells (P815 cells) at 100:1, 50:1, 25:1, and 12.5:1 ratios for 3.5 hours at 37° C. and harvested using a PHD harvester. The percentage of specific killing was determined using the formula % kill=(S−E)/S, where S is the amount of the DNA retained by the target cells in the absence of the effector cells and E is the amount of retained DNA in the presence of the effector cells (expressed in counts per minute; cpm).
This is an art-recognized model of allograft […] rejection based on that described by […]. (2000). In this model, there is a complete MHC mismatch between the P815 cells (H-2^d) and the C57BL6 mouse (H-2^b), thus ensuring an aggressive immune response. The data disclosed in FIG. 13, depicts results of experiments that included 6 treatment groups, each group consisting of three mice. Each mouse received 5×10^6 P815 cells injected into the peritoneal cavity on day 0 of the study. The first group was an untreated control group, which was used to establish the baseline response of the mice against the allogeneic stimulus. These mice, without any further treatments, were sacrificed, as were the other treatment groups, on day 14 of the study and their splenocytes assayed for target-specific killing of the P815 cells.
The average kill observed for the untreated group was about 45% at an effector to target ratio of 100:1. The second group was treated with risperidone, a 5HT-2 antagonist, administered via a tail vein bolus injection (200 μg/injection) on days 6 and 8 of the study. The timing of the drug administration was selected to ensure that the T cells were fully activated prior to the drug treatment. The third group was treated with propanolol, a 5HT-1 antagonist. All of the 5HT receptor antagonist-treated groups were treated as described for the risperidone-treated group. The fourth group was treated chronically with CyclosporinA. The Cyclosporin A was administered ip at a dosage of 100 μg/injection starting two days prior to the onset of the study, i.e., at day −2, and the injections were continued on a daily basis for the duration of the study.
Finally, studies conducted in vivo using the CD8-dependent allograft rejection model, in which P815 cells (a rapidly growing cell line taken from a mastocytoma in a DBA mouse), were expanded and used to create a robust rejection response in a C57BL6 mouse. In this study the mice received 5×10^6 P815 cells injected into their peritoneal cavity on day 0 of the study. The first group was an untreated control group (naïve animals), used to acquire the baseline response of the mice against the allogeneic stimulus. The positive controls were treated with the allogeneic cells without any further treatments. These animals were used to assess the induced allogeneic response against the P815 cells. […]

[4] = test system: ConA stimulated human lymphocytes; assay: Human mitogenic (ConA) stimulation, 3H-thymidine incorporation; format: cell-based; details: for relief of phenelzine-induced inhibition / proliferative response, reagent added alone: 1 μg/ml ConA; for relief of phenelzine-induced inhibition: phenelzine-inhibited cells, reagents 100 μM (FIG. 6); for proliferative response, reagent added alone: reagent 100 μM (FIG. 6); for stimulation of ConA-activated human PBLs: reagents at 400 μM, time course (FIG. 4)
Procedure: Blood from healthy volunteers was drawn using venipuncture, using Vacutainer collection sets and heparinized collection vials. The blood was diluted 1:1 using HBSS to a total volume of 30 ml in 50 ml conical tubes (Fisher Scientific, Co., Pittsburgh, Pa.). […] Cells from the buffy coats were collected and the residual Histopaque was washed away using repeated centrifugations in HBSS. After washes, cells were resuspended at 5 million cells per ml in RPMI, supplemented with 2% FBS. To remove adherent cells, the suspension was plated onto a 6 well flat-bottom plate (Corning Costar), 3 ml/well, and incubated for 2 hours at 37° C., 5% CO2. Non-adherent cells were harvested after this incubation, were counted and resuspended in RPMI supplemented with 10% human serum (Sigma).
All drugs were pre-plated before the cell suspension was added onto each well of a 96-well round-bottom plate. All experimental conditions were assayed in at least triplicate. Cells suspended in RPMI supplemented with 10% human serum were plated at 100,000 cells per well to a final volume of 200 μl. […] Control samples received no ConA stimulation. The plates were incubated at 37° C. and 5% CO2.

[5] = test system: T cells in macrophage-conditioned media; assay: Macrophage media-conditioning study, T cell proliferation in conditioned media; format: cell-based, mouse; details: assay shown in FIG. 1

| Molecule | outcome of murine MLR [1] | number of viable cells [2] | allograft (CTL) response [3] | relief of phenelzine-induced inhibition [4] | proliferative response, reagent added alone [4] | stimulation of ConA-activated human PBLs [4] | restoration of T cell proliferation in conditioned media [5] | further results |
| --- | --- | --- | --- | --- | --- | --- | --- | --- |
| 5-methyl hydroxytryptamine | slight enhancement | – | – | – | – | – | – | – |
| CC(C)NC[C@H](O)COc1cccc2ccccc12 (racemic) [propanolol] | – | prevents the cell from growing | did not protect the mice from the allograft rejection response | – | – | – | – | – |
| CNc1cc(NS(=O)(=O)c2ccc(N)cc2)nc(NC)n1 [Ro 04-679] | had no effects on the outcome of the assay | – | – | – | – | – | – | – |
| Cc1nc2n(c(=O)c1CCN1CCC(c3noc4cc(F)ccc34)CC1)CCCC2 [risperidone] | – | caused a brief cell increase, followed by the elimination of the cells in culture | inhibited the allograft response to varying degrees | – | – | – | – | – |
| NCCc1c[nH]c2ccc(O)cc12 [serotonin, 5-hydroxytryptamine] | – | – | – | caused the assay to rebound to baseline levels | did not | enhanced the maximal stimulation of the cells | only marginally restored the assay | proliferative response ([4]; differing ConA concentrations 0.1-10 μg/ml, harvest 72 hours (FIG. 5)): has no effect on the assay until the highest dose of ConA |
| N[C@@H](Cc1c[nH]c2ccccc12)C(=O)O [tryptophan] | – | – | – | had very little effect | enhanced the proliferative response | enhanced the maximal stimulation of the cells | had no effect | proliferative response ([4]; 0.1 μg/ml ConA, harvest 72 hours (FIG. 5A)): augments the proliferative response; proliferative response ([4]; highest ConA dose 10 μg/ml, harvest 72 hours (FIG. 5C)): no enhancement at the highest level |
